Data set [1] deals with 3T3-L1. Kind of data set: Cytotoxicity against mouse 3T3L1 cells assessed as cell viability at 0.02 to 20 uM by MTT assay. Format: cell-based. To be noted: 3t3-l1, 20 µM.
The target in data set [2] is T1, Pancreatic triacylglycerol lipase (Sus scrofa, UniProt P00591).
T1 sequence (P00591 whole entry): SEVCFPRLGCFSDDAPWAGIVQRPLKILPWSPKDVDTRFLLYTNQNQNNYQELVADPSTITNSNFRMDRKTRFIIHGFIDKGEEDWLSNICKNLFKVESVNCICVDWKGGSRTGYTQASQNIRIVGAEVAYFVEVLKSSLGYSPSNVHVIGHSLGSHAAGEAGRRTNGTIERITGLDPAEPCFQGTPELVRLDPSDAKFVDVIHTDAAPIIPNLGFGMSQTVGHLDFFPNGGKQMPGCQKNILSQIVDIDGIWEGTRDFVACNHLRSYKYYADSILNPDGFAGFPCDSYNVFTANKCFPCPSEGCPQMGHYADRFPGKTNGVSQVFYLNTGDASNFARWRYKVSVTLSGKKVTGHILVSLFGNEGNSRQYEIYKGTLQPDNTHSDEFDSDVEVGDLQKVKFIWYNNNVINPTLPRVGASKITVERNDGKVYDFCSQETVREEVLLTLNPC
Description: (§1) Inhibition of pig pancreatic lipase assessed as hydrolysis of p-nitrophenylbutyrate to p-nitrophenol.

In data set [3] the test system is 3T3-L1. Kind of data set: Antiadipogenic activity against mouse 3T3L1 cells assessed as inhibition of lipid deposition at 2 uM by Oil Red O staining. Format: functional.
In data set [4] the test system is 3T3-L1. Description: Cytotoxicity against mouse 3T3L1 cells assessed as cell viability upto 2 uM by MTT assay. Format: cell-based. Background: Tetrazolium dyes change colour on reduction, which living cells bring about.
Data set [5] addresses T2, Pancreatic triacylglycerol lipase (Sus scrofa) (UniProt P00591).
T2 sequence (whole entry): T1 sequence (P00591 whole entry)
Described as §1.

Bounds are passed on as bounds.

Here are results for four molecules from ChEMBL document CHEMBL2331159, “Radiolytic transformation of rotenone with potential anti-adipogenic activity” (Bioorg Med Chem Lett, 2013).

For orientation: IC50 means the concentration that inhibits the measured activity by half. On to `C=C(C)[C@H]1Cc2c(ccc3c2O[C@@H]2COc4cc(OC)c(OC)cc4[C@@H]2C3=O)O1` (stereo in doubt; 1) [ROTENONE], for which the Activity result with 3T3-L1 [1] was “Toxic”. Besides, in data set [2], the IC50 is greater than 500 µM.
A word on the inhibition: it is how much of the control response was suppressed. In the case of `C=C(C)[C@H]1Cc2c(ccc3c2O[C@@H]2COc4cc(OC)c(OC)cc4[C@@H]2[C@]32C[C@H]3O[C@@]3(O)[C@H](O)O2)O1` [ROTENOISIN B], in the data set on 3T3-L1 [3], the inhibition at 2 µM was 70%. The Activity result in the data set on 3T3-L1 [4] is “Non-toxic”. Besides, the half-maximal inhibitory concentration (IC50) in data set [2] amounted to 28.4 µM.
In the case of `C=C(C)[C@H]1Cc2c(ccc3c2O[C@@H]2COc4cc(OC)c(OC)cc4[C@@H]2C3=O)O1` (stereo in doubt) [ROTENONE], the IC50 in data set [2] is 79.1 µM.
On to `C=C(C)[C@H]1Cc2c(ccc3c2O[C@@H]2COc4cc(OC)c(OC)cc4[C@@H]2[C@@]32CO2)O1` [ROTENOISIN A], for which, in the data set with 3T3-L1 [3], the inhibition at 2 µM stood at 70%. The Activity entry in the data set with 3T3-L1 [4] is “Non-toxic”. The inhibition entry in data set [5] is “Dose-dependent effect”. Besides, in data set [2], the IC50 turned out to be 6.3 µM.
